Patent publication US20130267484A1, “TREATMENT OF RHEUMATOID ARTHRITIS WITH MASITINIB” (AB SCIENCE, priority 2010, published 2013)
Where two headings read alike, the source gives them in different places.

What was measured:
PDGFR = conditions: cited from earlier work
c-kit = conditions: cited from earlier work
Lyn = Lyn (Homo sapiens, UniProt P07948); conditions: cited from earlier work
human cord blood MCs = conditions: cited from earlier work
[1] = tested on: DMARD-refractory active RA; test: Study of masitinib in combination with MTX in DMARD-refractory active RA; format: in vivo, Human
Experimental: A smaller second study was also conducted to evaluate the safety and efficacy of masitinib in combination with MTX in the treatment of DMARD-refractory active RA. […] (1) MTX; (2) any DMARD including anti-TNFα if patients previously failed MTX; or (3) MTX in combination with any DMARD including anti-TNFα.

Src = Src (Homo sapiens, UniProt P12931); conditions: at therapeutic doses; cited from earlier work
[2] = week 12, total ITT population (n=8)
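For ALAT in the patient with hepatic disorder in this document: Open-label phase 2a trial, oral dosing twice daily, incidence of drug-related AEs (>4%) by intensity per Common Toxicity Criteria v3.0, initial 12-week and extension phases.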
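For ASAT in the patient with hepatic disorder in this document: Open-label phase 2a trial, oral dosing twice daily, incidence of drug-related AEs (>4%) by intensity per Common Toxicity Criteria v3.0, initial 12-week and extension phases.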
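For Treatment time to occurrence of severe transaminases increase AE in this document: Open-label phase 2a trial, oral dosing twice daily, incidence of drug-related AEs (>4%) by intensity per Common Toxicity Criteria v3.0, initial 12-week and extension phases.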
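For alkaline phosphatase in the patient with hepatic disorder in this document: Open-label phase 2a trial, oral dosing twice daily, incidence of drug-related AEs (>4%) by intensity per Common Toxicity Criteria v3.0, initial 12-week and extension phases.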

Lyn, sequence (P07948 whole entry): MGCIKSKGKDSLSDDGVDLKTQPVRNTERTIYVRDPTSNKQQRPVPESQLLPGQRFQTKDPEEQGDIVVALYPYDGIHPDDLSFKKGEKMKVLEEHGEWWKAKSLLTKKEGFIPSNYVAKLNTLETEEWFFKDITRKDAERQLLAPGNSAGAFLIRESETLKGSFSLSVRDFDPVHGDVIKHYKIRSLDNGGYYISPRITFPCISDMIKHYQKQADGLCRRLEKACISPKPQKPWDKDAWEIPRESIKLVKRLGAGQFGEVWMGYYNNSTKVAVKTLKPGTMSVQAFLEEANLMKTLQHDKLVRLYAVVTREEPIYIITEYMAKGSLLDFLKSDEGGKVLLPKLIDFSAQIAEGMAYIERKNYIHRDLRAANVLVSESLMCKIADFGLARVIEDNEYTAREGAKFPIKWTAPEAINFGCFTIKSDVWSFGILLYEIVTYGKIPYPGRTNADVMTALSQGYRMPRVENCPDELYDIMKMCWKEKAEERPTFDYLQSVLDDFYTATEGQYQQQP
Src, sequence (P12931 whole entry): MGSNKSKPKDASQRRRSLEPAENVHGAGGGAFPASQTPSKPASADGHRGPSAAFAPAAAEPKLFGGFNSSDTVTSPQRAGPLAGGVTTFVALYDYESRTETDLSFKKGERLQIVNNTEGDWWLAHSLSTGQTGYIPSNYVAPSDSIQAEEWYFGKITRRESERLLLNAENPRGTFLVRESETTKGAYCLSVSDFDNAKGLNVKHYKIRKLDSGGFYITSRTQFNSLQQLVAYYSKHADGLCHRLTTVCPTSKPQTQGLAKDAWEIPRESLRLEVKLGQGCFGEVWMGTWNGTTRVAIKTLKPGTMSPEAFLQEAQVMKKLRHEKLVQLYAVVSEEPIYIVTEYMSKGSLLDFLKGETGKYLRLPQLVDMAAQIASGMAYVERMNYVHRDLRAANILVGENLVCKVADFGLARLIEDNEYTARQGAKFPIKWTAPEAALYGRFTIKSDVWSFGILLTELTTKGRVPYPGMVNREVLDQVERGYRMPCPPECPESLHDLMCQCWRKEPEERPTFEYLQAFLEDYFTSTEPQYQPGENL

## Cc1ccc(NC(=O)c2ccc(CN3CCN(C)CC3)cc2)cc1Nc1nc(-c2cccnc2)cs1 [masitinib, 4-(4-methylpiperazin-1-ylmethyl)-N-[4-methyl-3-(4-pyridin-3ylthiazol-2-ylamino)phenyl]benzamide]
PDGFR
  Inhibition of PDGFR: selectively inhibiting
c-kit
  Effect on wild-type and juxtamembrane-mutated c-Kit receptors: strong inhibitory effect
  Inhibition of c-kit: selectively inhibiting
Adults with active RA; 6 mg/kg/day, one patient
  ALAT in the patient with hepatic disorder: 188
  ASAT in the patient with hepatic disorder: 122
  Treatment time to occurrence of severe transaminases increase AE: 14 days
  alkaline phosphatase in the patient with hepatic disorder: 635
Adults with active RA; Extension phase, All (n = 21)
  Suspected AE: Aphthous Stomatitis: 1 (4.8%)
  Suspected AE: Asthenia: 1 (4.8%)
  Suspected AE: Bronchopneumopathy: 1 (4.8%)
  Suspected AE: Eczema: 1 (4.8%)
  Suspected AE: Edema - All: 2 (9.5%)
  Suspected AE: Gastroenteritis: 1 (4.8%)
  Suspected AE: Leukopenia: 1 (4.8%)
  Suspected AE: Liver Disorder: 1 (4.8%)
  Suspected AE: Nasopharyngitis: 1 (4.8%)
  Suspected AE: Neutrophil Count Decreased: 1 (4.8%)
  Suspected AE: Onychoclasis: 1 (4.8%)
  Suspected AE: Photosensitivity Reaction: 1 (4.8%)
  Suspected AE: Pleural Effusion: 1 (4.8%)
  Suspected AE: Pyrexia: 1 (4.8%)
  Suspected AE: Rheumatoid Arthritis: 1 (4.8%)
  Suspected AE: Rhinitis: 1 (4.8%)
  Suspected AE: Vertigo: 1 (4.8%)
Adults with active RA; Extension phase, Mild
  Subjects with At least one suspected AE: 4 (19.0%)
  Suspected AE: Aphthous Stomatitis: 1 (4.8%)
  Suspected AE: Asthenia: 1 (4.8%)
  Suspected AE: Eczema: 1 (4.8%)
  Suspected AE: Gastroenteritis: 1 (4.8%)
  Suspected AE: Nasopharyngitis: 1 (4.8%)
  Suspected AE: Neutrophil Count Decreased: 1 (4.8%)
  Suspected AE: Onychoclasis: 1 (4.8%)
  Suspected AE: Photosensitivity Reaction: 1 (4.8%)
  Suspected AE: Pyrexia: 1 (4.8%)
  Suspected AE: Rhinitis: 1 (4.8%)
Adults with active RA; Extension phase, Moderate
  Subjects with At least one suspected AE: 3 (14.3%)
  Suspected AE: Edema - All: 2 (9.5%)
  Suspected AE: Leukopenia: 1 (4.8%)
  Suspected AE: Vertigo: 1 (4.8%)
Adults with active RA; Extension phase, Severe
  Suspected AE: Bronchopneumopathy: 1 (4.8%)
  Suspected AE: Liver Disorder: 1 (4.8%)
  Suspected AE: Pleural Effusion: 1 (4.8%)
  Suspected AE: Rheumatoid Arthritis: 1 (4.8%)
Adults with active RA; Initial Phase, All (n = 43)
  Suspected AE: Abdominal Pain: 2 (4.7%)
  Suspected AE: Abdominal Pain Upper: 5 (11.6%)
  Suspected AE: Alopecia: 2 (4.7%)
  Suspected AE: Asthenia: 5 (11.6%)
  Suspected AE: Blood Creatinine Increased: 2 (4.7%)
  Suspected AE: Cough: 2 (4.7%)
  Suspected AE: Diarrhea: 8 (18.6%)
  Suspected AE: Dry Mouth: 2 (4.7%)
  Suspected AE: Dyspnoea: 3 (7.0%)
  Suspected AE: Edema - All: 11 (25.6%)
  Suspected AE: Gastroenteritis: 2 (4.7%)
  Suspected AE: Headache: 6 (14.0%)
  Suspected AE: Herpes Simplex: 3 (7.0%)
  Suspected AE: Hyperthermia: 2 (4.7%)
  Suspected AE: Nausea: 10 (23.3%)
  Suspected AE: Petechiae: 2 (4.7%)
  Suspected AE: Pyrexia: 3 (7.0%)
  Suspected AE: Rash - All: 13 (30.2%)
  Suspected AE: Vomiting: 5 (11.6%)
  Suspected AE: Weight Decreased: 3 (7.0%)
Adults with active RA; Initial Phase, Mild
  Subjects with At least one suspected AE: 29 (67.4%)
  Suspected AE: Abdominal Pain: 1 (2.3%)
  Suspected AE: Abdominal Pain Upper: 4 (9.3%)
  Suspected AE: Alopecia: 2 (4.7%)
  Suspected AE: Blood Creatinine Increased: 1 (2.3%)
  Suspected AE: Cough: 1 (2.3%)
  Suspected AE: Diarrhea: 5 (11.6%)
  Suspected AE: Dry Mouth: 1 (2.3%)
  Suspected AE: Dyspnoea: 1 (2.3%)
  Suspected AE: Edema - All: 2 (4.7%)
  Suspected AE: Headache: 4 (9.3%)
  Suspected AE: Herpes Simplex: 2 (4.7%)
  Suspected AE: Nausea: 6 (14.0%)
  Suspected AE: Petechiae: 1 (2.3%)
  Suspected AE: Pyrexia: 1 (2.3%)
  Suspected AE: Rash - All: 7 (16.3%)
  Suspected AE: Vomiting: 1 (2.3%)
  Suspected AE: Weight Decreased: 2 (4.7%)
Adults with active RA; Initial Phase, Moderate
  Subjects with At least one suspected AE: 27 (62.8%)
  Suspected AE: Abdominal Pain Upper: 1 (2.3%)
  Suspected AE: Asthenia: 4 (9.3%)
  Suspected AE: Blood Creatinine Increased: 1 (2.3%)
  Suspected AE: Cough: 1 (2.3%)
  Suspected AE: Diarrhea: 2 (4.7%)
  Suspected AE: Dyspnoea: 1 (2.3%)
  Suspected AE: Edema - All: 6 (14.0%)
  Suspected AE: Gastroenteritis: 2 (4.7%)
  Suspected AE: Headache: 2 (4.7%)
  Suspected AE: Herpes Simplex: 1 (2.3%)
  Suspected AE: Hyperthermia: 1 (2.3%)
  Suspected AE: Nausea: 5 (11.6%)
  Suspected AE: Petechiae: 1 (2.3%)
  Suspected AE: Pyrexia: 1 (2.3%)
  Suspected AE: Rash - All: 8 (18.6%)
  Suspected AE: Vomiting: 4 (9.3%)
  Suspected AE: Weight Decreased: 1 (2.3%)
Adults with active RA; Initial Phase, Severe
  Suspected AE: Abdominal Pain: 1 (2.3%)
  Suspected AE: Asthenia: 1 (2.3%)
  Suspected AE: Diarrhea: 1 (2.3%)
  Suspected AE: Dry Mouth: 1 (2.3%)
  Suspected AE: Dyspnoea: 1 (2.3%)
  Suspected AE: Edema - All: 3 (7.0%)
  Suspected AE: Hyperthermia: 1 (2.3%)
  Suspected AE: Pyrexia: 1 (2.3%)
Adults with active RA; Total population, of 16 discontinued
  Early study discontinuation: Adverse event: 13/16
Adults with active RA; after first drug intake or dose increase
  Median onset time of edematous episodes: 28 days
Adults with active RA; after week 12 (extension phase, n = 21)
  Incidence of skin rash, nausea, vomiting or diarrhea: no incidence
Adults with active RA; extension phase versus initial phase
  Decrease in occurrence of edema: > 60%
Adults with active RA; human, in vivo
  Average time within which edematous episodes abated: ≤ 16 days
Adults with active RA; in vivo
  Doses associated with the majority of severe AEs: ≥ 7.5 mg/kg/day
Adults with active RA; initial dosage 3 mg/kg/day, of 7 discontinued
  Early study discontinuation: Adverse event: 6/7
Adults with active RA; initial dosage 6 mg/kg/day, of 9 discontinued
  Early study discontinuation: Adverse event: 7/9
Adults with active RA; initial phase, of 43 patients
  Patients discontinuing treatment with occurrence of AEs as main reason: 30%
Adults with active RA; n = 43
  Deaths during the study: no deaths occurred
Adults with active RA; n = 43, skin rash, pleural effusion, pneumonia, RA flare up
  Patients with non-fatal SAE of severe intensity suspected to be related to masitinib (or not assessable): 9%
Adults with active RA; one patient, no reoccurrence following reintroduction
  Time to resolution of severe transaminases increase AE after drug withdrawal: ≤ 4 weeks
Lyn
  Inhibition of Lyn: selectively inhibiting
Human cord blood MCs
  FcεRI-mediated degranulation: inhibition
[1]; 6 mg/kg/day, had failed anti-TNFα
  Patients achieving ACR70 at week 4 maintained up to week 12: One
[1]; 3 of 8 patients evaluable
  Patients achieving ACR20 at week 8 through 12: One
  Patients reaching ACR20 at week 12: One
[1]; week 12
  Patients with CRP score improvement of between 25 and 50%: two
[1]; week 12, 6 mg/kg/day
  Patients with CRP improvement greater than 50%: one
[1]; [2]
  Asthenia assessment change (mean): −19.6%
  HAQ assessment improvement: 29.5%
  Hamilton Score improvement: 75.7%
  Improvement of general patient health: +92.2%
  Mean FIS Physical and Social score: slightly decreased
  Pain assessment change (mean): −72.2%
Src
  Inhibition of Src: without inhibiting
